Experimental data as given in patent US20130029970A1 (priority 2009, published 2013).
Like-named read-outs stand apart in the source and are kept apart here.

Columns and labels:
human CB1 receptors = biological target: T1, human CB1 receptors (Homo sapiens, UniProt P21554); experiment: cAMP assay in HEK-293 cells, hCB1 agonist; assay type: cell-based
T1 construct: (cDNA clone) CNR01L000
In short: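 Stable hCB1 HEK-293 cells suspended in HBSS with 10 mM HEPES and 0.1% fatty acid-free BSA, incubated 30 min at 37° C. with compound plus forskolin (90 uM in the 3× compound solution). Lysed cAMP measured by enzyme-fragment kit; EC50 = 50% inhibition of forskolin-stimulated cAMP (forskolin maximum = 100%), sigmoidal fit.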

human CB2 receptors = biological target: T2, human CB2 receptors (Homo sapiens, UniProt P34972); experiment: cAMP assay in HEK-293 cells, hCB2 agonist; assay type: cell-based
T2 construct: (cDNA clone) CNR0200000
In short: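 HEK-293 cells stably expressing human CB2, suspended at 1,500,000 cells/mL in HBSS with 10 mM HEPES and 0.1% fatty-acid-free BSA, exposed to test compound plus forskolin (90 uM in the 3× compound solution) for 30 min at 37° C.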

[1] = inhibition of forskolin-stimulated cAMP, HEK-293 cells
[2] = inhibition of forskolin-stimulated cAMP, HEK-293 cells, read-out: hCB1 EC50 (cAMP ag)

T1 sequence (P21554 whole entry): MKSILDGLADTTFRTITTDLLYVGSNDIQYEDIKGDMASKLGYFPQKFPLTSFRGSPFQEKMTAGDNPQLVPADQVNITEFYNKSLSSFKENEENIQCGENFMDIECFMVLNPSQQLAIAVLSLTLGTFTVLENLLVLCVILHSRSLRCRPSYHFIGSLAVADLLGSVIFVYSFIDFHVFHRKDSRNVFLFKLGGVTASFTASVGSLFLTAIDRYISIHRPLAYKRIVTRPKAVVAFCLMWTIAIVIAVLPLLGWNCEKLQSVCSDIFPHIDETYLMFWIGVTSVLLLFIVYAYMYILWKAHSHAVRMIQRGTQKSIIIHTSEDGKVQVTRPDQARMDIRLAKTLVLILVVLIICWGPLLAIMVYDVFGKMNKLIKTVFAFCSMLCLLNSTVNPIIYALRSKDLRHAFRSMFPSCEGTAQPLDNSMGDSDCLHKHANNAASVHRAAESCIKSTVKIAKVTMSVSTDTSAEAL
T2 sequence (P34972 whole entry): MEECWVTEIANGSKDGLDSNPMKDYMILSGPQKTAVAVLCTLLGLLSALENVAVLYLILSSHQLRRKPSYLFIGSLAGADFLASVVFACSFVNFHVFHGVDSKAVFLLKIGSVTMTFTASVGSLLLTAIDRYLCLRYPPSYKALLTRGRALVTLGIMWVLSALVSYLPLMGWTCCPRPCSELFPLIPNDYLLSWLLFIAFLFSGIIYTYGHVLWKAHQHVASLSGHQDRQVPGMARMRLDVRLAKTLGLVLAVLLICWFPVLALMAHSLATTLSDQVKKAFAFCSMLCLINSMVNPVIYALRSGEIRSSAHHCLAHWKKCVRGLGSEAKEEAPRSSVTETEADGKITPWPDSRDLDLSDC

| SMILES | hCB1 EC50 (cAMP ag, nM) (human CB1 receptors; [1]) | EC50 (human CB2 receptors) [nM] | EC50 (human CB1 receptors; [2]) [nM] | EC50 (human CB1 receptors) [nM] |
| --- | --- | --- | --- | --- |
| C=Cn1c(C)cc2cc(C(=O)c3cccc(Cl)c3Cl)sc21 [Comp 29] | NS (NS means “Not Significant,” which means less than 30% agonist activity when compared to the positive control.) | 100 to 1000 | – | – |
| Cc1cc2cc(C(=O)c3cccc(Cl)c3Cl)sc2n1CCN1CCOCC1 [Compound 1, (2,3-dichlorophenyl)(5-methyl-6-(2-morpholinoethyl)-6H-thieno[2,3-b]pyrrol-2-yl)methanone] | – | < 100 | > 10000 | – |
| CCCn1c(C)cc2cc(C(=O)c3cccc(Cl)c3Cl)sc21 [Compound 3, (2,3-Dichlorophenyl)(5-methyl-6-propyl-6H-thieno[2,3-b]pyrrol-2-yl)methanone] | NS (NS means “Not Significant,” which means less than 30% agonist activity when compared to the positive control.) | < 100 | – | – |
| Cc1cc2cc(C(=O)c3ccccc3Cl)sc2n1CCN1CCOCC1 [Compound 5, (2-Chlorophenyl)(5-methyl-6-(2-morpholinoethyl)-61-1-thieno[2,3-b]pyrrol-2-yl)methanone] | – | < 100 | 100 to 1000 | – |
| Cc1cc2cc(C(=O)c3ccc(Cl)cc3)sc2n1CCN1CCOCC1 [Compound 6, (4-Chlorophenyl)(5-methyl-6-(2-morpholinoethyl)-6H-thieno[2,3-b]pyrrol-2-yl)methanone] | NS (NS means “Not Significant,” which means less than 30% agonist activity when compared to the positive control.) | < 100 | – | – |
| Cc1cc2cc(C(=O)c3cccc(F)c3F)sc2n1CCN1CCOCC1 [Compound 8, (2,3-Difluorophenyl)(5-methyl-6-(2-morpholinoethyl)-6H-thieno[2,3-b]pyrrol-2-yl)methanone] | NS (NS means “Not Significant,” which means less than 30% agonist activity when compared to the positive control.) | < 100 | – | – |
| Cc1cc2cc(C(=O)c3ccc(Cl)c(Cl)c3)sc2n1CCN1CCOCC1 [Compound 9, (3,4-Dichlorophenyl)(5-methyl-6-(2-morpholinoethyl)-6H-thieno[2,3-b]pyrrol-2-yl)methanone] | NS (NS means “Not Significant,” which means less than 30% agonist activity when compared to the positive control.) | 100 to 1000 | – | – |
| Cc1cc2cc(C(=O)c3cccc4c3OCC4)sc2n1CCN1CCOCC1 [Compound 11, (2,3-Dihydrobenzofuran-7-yl)(5-methyl-6-(2-morpholinoethyl)-6H-thieno[2,3-b]pyrrol-2-yl)methanone] | – | < 100 | 100 to 1000 | – |
| COc1ccccc1C(=O)c1cc2cc(C)n(CCN3CCOCC3)c2s1 [Compound 13, (2-Methoxyphenyl)(5-methyl-6-(2-morpholinoethyl)-6H-thieno[2,3-b]pyrrol-2-yl)methanone] | – | < 100 | 100 to 1000 | – |
| Cc1cc2cc(C(=O)c3cccnc3Cl)sc2n1CCN1CCOCC1 [Compound 17, (2-Chloropyridin-3-yl)(5-methyl-6-(2-morpholinoethyl)-6H-thieno[2,3-b]pyrrol-2-yl)methanone] | NS (NS means “Not Significant,” which means less than 30% agonist activity when compared to the positive control.) | < 100 | – | – |
| Cc1cc2cc(C(=O)c3cccc(Cl)c3Cl)sc2n1CCC1CCOCC1 [Compound 18, (2,3-Dichlorophenyl)(5-methyl-6-(2-(tetrahydro-2H-pyran-4-yl)ethyl)-6H-thieno[2,3-b]pyrrol-2-yl)methanone] | – | < 100 | 100 to 1000 | – |
| COCCn1c(C)cc2cc(C(=O)c3cccc(Cl)c3Cl)sc21 [Compound 21, (2,3-Dichlorophenyl)(6-(2-methoxyethyl)-5-methyl-6H-thieno[2,3-b]pyrrol-2-yl)methanone] | – | < 100 | 1000 to 10000 | – |
| Cc1cc2cc(C(=O)c3cccc(Cl)c3Cl)sc2n1CCN1CCCCC1 [Compound 23, (2,3-Dichlorophenyl)(5-methyl-6-(2-(piperidin-1-yl)ethyl)-6H-thieno[2,3-b]pyrrol-2-yl)methanone] | NS (NS means “Not Significant,” which means less than 30% agonist activity when compared to the positive control.) | < 100 | – | – |
| Cc1cc2cc(C(=O)c3cccc(Cl)c3Cl)sc2n1CC1CCCCN1C (stereo not shown) [Compound 24, (2,3-Dichlorophenyl)(5-methyl-6((1-methylpiperidin-2-yl)methyl)-6H-thieno[2,3-b]pyrrol-2-yl)methanone] | NS (NS means “Not Significant,” which means less than 30% agonist activity when compared to the positive control.) | < 100 | – | – |
| Cc1cc2cc(C(=O)c3cccc(Cl)c3Cl)sc2n1CCN1CCCC1 [Compound 28, (2,3-Dichlorophenyl)(5-methyl-6-(2-(pyrrolidin-1-yl)ethyl)-6H-thieno[2,3-b]pyrrol-2-yl)methanone] | NS (NS means “Not Significant,” which means less than 30% agonist activity when compared to the positive control.) | < 100 | – | – |
| COc1ccc(C(=O)c2cc3cc(C)n(CCN4CCOCC4)c3s2)cc1 [Compound 36, (4-methoxyphenyl)(5-methyl-6-(2-morpholinoethyl)-6H-thieno[2,3-b]pyrrol-2-yl)methanone] | – | < 100 | – | 1000 to 10000 |
| Cc1cc2cc(C(=O)c3cccc(Cl)c3Cl)sc2n1S(=O)(=O)N(C)C [Compound 41, 2-(2,3-Dichlorobenzoyl)-N,N,5-trimethyl-6H-thieno[2,3-b]pyrrole-6-sulfonamide] | – | < 100 | 1000 to 10000 | – |
| Cc1cc2cc(C(=O)c3ccccc3N)sc2n1CCN1CCOCC1 [Compound 48, (2-Aminophenyl)(5-methyl-6-(2-morpholinoethyl)-6H-thieno[2,3-b]pyrrol-2-yl)methanone] | – | < 100 | 1000 to 10000 | – |
| COCCn1c(C)cc2cc(C(=O)c3ccc(OC)cc3)sc21 [Compound 49, (6-(2-Methoxyethyl)-5-methyl-6H-thieno[2,3-b]pyrrol-2-yl)(4-methoxyphenyl)methanone] | NS (NS means “Not Significant,” which means less than 30% agonist activity when compared to the positive control.) | 100 to 1000 | – | – |
| COc1ccc(C(=O)c2cc3cc(C)n(CCN4CCOC4=O)c3s2)cc1 [Compound 50, 3-(2-(2-(4-Methoxybenzoyl)-5-methyl-6H-thieno[2,3-b]pyrrol-6-yl)ethyl)oxazolidin-2-one] | NS (NS means “Not Significant,” which means less than 30% agonist activity when compared to the positive control.) | < 100 | – | – |
| CCOc1ccc(C(=O)c2cc3cc(C)n(CCN4CCOCC4)c3s2)cc1 [Compound 55, (4-Ethoxyphenyl)(5-methyl-6-(2-morpholinoethyl)-6H-thieno[2,3-b]pyrrol-2-yl)methanone] | – | < 100 | 1000 to 10000 | – |
| Cc1cc2cc(C(=O)c3ccc(N(C)C)cc3)sc2n1CCN1CCOCC1 [Compound 59, (4-(Dimethylamino)phenyl)(5-methyl-6-(2-morpholinoethyl)-6H-thieno[2,3-b]pyrrol-2-yl)methanone] | NS (NS means “Not Significant,” which means less than 30% agonist activity when compared to the positive control.) | 100 to 1000 | – | – |
| Cc1cc2cc(C(=O)c3ccc(F)cc3Cl)sc2n1CCN1CCOCC1 [Compound 64, (2-Chloro-4-fluorophenyl)(5-methyl-6-(2-morpholinoethyl)-6H-thieno[2,3-b]pyrrol-2-yl)methanone] | – | < 100 | 100 to 1000 | – |
| Cc1cc2cc(C(=O)c3ccc(OC(F)(F)F)cc3)sc2n1CCN1CCOCC1 [Compound 65, (5-Methyl-6-(2-morpholinoethyl)-6H-thieno[2,3-b]pyrrol-2-yl)(4-(trifluoromethoxy)phenyl)methanone] | NS (NS means “Not Significant,” which means less than 30% agonist activity when compared to the positive control.) | 100 to 1000 | – | – |
| COc1ccc(C(=O)c2cc3cc(C)n(CCN4CCOCC4)c3s2)c(F)c1 [Compound 68, (2-Fluoro-4-methoxyphenyl)(5-methyl-6-(2-morpholinoethyl)-6H-thieno[2,3-b]pyrrol-2-yl)methanone] | – | < 100 | 1000 to 10000 | – |
| COc1ccc(C(=O)c2cc3cc(C)n(CCNS(C)(=O)=O)c3s2)cc1 [Compound 71, N-(2-(2-(4-Methoxybenzoyl)-5-methyl-6H-thieno[2,3-b]pyrrol-6-yl)ethyl)methanesulfonamide] | NS (NS means “Not Significant,” which means less than 30% agonist activity when compared to the positive control.) | 100 to 1000 | – | – |
| CCOC(=O)CCn1c(C)cc2cc(C(=O)c3ccc(OC)cc3)sc21 [Compound 72, Ethyl 3-(2-(4-methoxybenzoyl)-5-methyl-6H-thieno[2,3-b]pyrrol-6-yl)propanoate] | NS (NS means “Not Significant,” which means less than 30% agonist activity when compared to the positive control.) | 100 to 1000 | – | – |
| Cc1ccc(C(=O)c2cc3cc(C)n(CCN4CCOCC4)c3s2)c(F)c1 [Compound 80, (2-Fluoro-4-methylphenyl)(5-methyl-6-(2-morpholinoethyl)-6H-thieno[2,3-b]pyrrol-2-yl)methanone] | NS (NS means “Not Significant,” which means less than 30% agonist activity when compared to the positive control.) | < 100 | – | – |
| COc1ccc(C(=O)c2cc3cc(C)n(CCN4CCCC4)c3s2)cc1 [Compound 83, (4-Methoxyphenyl)(5-methyl-6-(2-(pyrrolidin-1-yl)ethyl)-6H-thieno[2,3-b]pyrrol-2-yl)methanone] | – | < 100 | 1000 to 10000 | – |
